Reference: ChEMBL document CHEMBL5625247, “Tetrahydro-β-carboline derivatives as potent histone deacetylase 6 inhibitors with broad-spectrum antiproliferative activity” (Eur J Med Chem, 2023)

How the values were obtained:
[1] = biological target: T1, Protein deacetylase HDAC6 (Homo sapiens, UniProt Q9UBN7); experiment: Inhibition of HDAC6 (unknown origin) expressed in baculovirus infected in Sf9 cells using RHKKAc as substrate preincubated for 5 to 10 mins followed by substrate addition measured after 2 hrs by fluorescence based assay
T1 sequence (Q9UBN7 whole entry): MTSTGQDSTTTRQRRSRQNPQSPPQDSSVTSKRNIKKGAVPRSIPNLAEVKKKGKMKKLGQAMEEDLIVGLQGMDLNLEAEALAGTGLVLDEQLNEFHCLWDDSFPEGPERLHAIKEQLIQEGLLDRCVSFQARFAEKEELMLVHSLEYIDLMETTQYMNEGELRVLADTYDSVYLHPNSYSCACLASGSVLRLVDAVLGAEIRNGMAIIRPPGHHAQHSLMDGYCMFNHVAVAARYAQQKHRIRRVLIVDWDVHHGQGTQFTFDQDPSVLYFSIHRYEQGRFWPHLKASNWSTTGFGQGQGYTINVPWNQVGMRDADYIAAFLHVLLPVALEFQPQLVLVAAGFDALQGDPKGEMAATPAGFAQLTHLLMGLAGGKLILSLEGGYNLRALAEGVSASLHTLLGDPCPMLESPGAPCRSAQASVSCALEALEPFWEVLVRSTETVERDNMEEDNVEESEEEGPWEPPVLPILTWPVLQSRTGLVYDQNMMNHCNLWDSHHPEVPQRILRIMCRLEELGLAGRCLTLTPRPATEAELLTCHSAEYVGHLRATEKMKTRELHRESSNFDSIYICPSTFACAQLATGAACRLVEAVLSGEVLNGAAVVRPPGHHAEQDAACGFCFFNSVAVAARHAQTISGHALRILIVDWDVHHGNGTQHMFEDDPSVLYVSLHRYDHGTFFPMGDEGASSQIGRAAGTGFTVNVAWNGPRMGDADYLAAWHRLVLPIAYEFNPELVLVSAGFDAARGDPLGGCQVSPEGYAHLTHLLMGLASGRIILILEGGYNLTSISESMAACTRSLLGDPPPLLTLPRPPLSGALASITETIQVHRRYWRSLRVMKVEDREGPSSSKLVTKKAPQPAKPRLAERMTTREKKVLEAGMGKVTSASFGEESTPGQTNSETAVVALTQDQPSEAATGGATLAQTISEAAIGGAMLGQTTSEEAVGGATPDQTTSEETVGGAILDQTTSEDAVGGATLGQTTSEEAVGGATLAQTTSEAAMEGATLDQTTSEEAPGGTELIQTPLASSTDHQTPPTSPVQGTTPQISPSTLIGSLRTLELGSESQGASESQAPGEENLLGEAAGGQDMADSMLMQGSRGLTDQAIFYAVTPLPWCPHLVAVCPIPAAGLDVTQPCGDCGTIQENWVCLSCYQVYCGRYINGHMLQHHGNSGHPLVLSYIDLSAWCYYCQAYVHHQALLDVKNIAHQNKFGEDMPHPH

Histone deacetylase 1 [2] = biological target: T2, Histone deacetylase 1 (Homo sapiens, UniProt Q13547); experiment: Inhibition of HDAC1 (unknown origin) expressed in baculovirus infected in Sf9 cells using RHKKAc as substrate preincubated for 5 to 10 mins followed by substrate addition measured after 2 hrs by fluorescence based assay
T2 sequence (Q13547 whole entry): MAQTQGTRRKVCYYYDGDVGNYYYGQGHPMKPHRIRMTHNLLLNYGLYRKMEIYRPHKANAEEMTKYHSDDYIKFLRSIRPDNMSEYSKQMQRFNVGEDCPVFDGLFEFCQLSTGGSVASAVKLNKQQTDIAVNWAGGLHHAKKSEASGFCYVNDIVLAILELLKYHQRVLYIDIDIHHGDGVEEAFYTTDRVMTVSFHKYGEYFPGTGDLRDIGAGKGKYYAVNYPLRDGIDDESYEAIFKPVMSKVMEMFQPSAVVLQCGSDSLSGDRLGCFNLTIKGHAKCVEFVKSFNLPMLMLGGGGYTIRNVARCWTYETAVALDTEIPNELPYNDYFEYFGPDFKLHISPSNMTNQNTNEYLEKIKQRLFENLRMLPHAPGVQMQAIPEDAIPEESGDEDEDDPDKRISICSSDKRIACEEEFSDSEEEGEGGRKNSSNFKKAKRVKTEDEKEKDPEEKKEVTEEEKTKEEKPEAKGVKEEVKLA

RPMI-8226 = experiment: cells; assay type: functional, cell-based; details: Homo sapiens, RPMI-8226, 72 h
[3] = biological target: T3, Protein deacetylase HDAC6 (Homo sapiens) (UniProt Q9UBN7); experiment: Inhibition of HDAC6 (unknown origin) expressed in baculovirus infected in Sf9 cells using RHKKAc as substrate at 500 nM preincubated for 5 to 10 mins followed by substrate addition measured after 2 hrs by fluorescence based assay relative to control; details: time 5-130 min
T3 sequence (whole entry): T1 sequence (Q9UBN7 whole entry)

Histone deacetylase 1 [4] = biological target: T2, Histone deacetylase 1; experiment: Inhibition of HDAC1 (unknown origin) expressed in baculovirus infected in Sf9 cells using RHKKAc as substrate at 500 nM preincubated for 5 to 10 mins followed by substrate addition measured after 2 hrs by fluorescence based assay relative to control; details: time 5-130 min

Row | Compound | IC50 [1] [µM] | IC50 (Histone deacetylase 1 [2]) [µM] | IC50 (RPMI-8226) [µM] | inhibition [3] [%] | inhibition (Histone deacetylase 1 [4]) [%]
1 | O=C(NO)c1ccc(CNC(=O)[C@H]2Cc3c([nH]c4ccccc34)[C@H](C3CC3)N2Cc2ccc(Cl)cc2)cc1 | 0.0105 | 0.184 |  |  | 
2 | O=C(NO)c1ccc(CNC(=O)[C@H]2Cc3c([nH]c4ccccc34)[C@H](C3CC3)N2)cc1 | 0.00436 | 0.038 | 0.83 |  | 
3 | COc1ccc(CN2[C@@H](C(=O)NCc3ccc(C(=O)NO)cc3)Cc3c([nH]c4ccccc34)[C@@H]2C)cc1 | 0.00884 | 0.125 |  |  | 
4 | O=C(NO)c1ccc(CNC(=O)[C@H]2Cc3c([nH]c4ccccc34)[C@H](c3ccc(Cl)cc3)N2CC2CC2)cc1 |  | 0.106 |  |  | 
5 | COc1ccc([C@@H]2N[C@H](C(=O)NCc3ccc(C(=O)NO)cc3)Cc3c2[nH]c2ccccc32)cc1 |  |  |  | 87.1 | 30.6
6 | COc1ccc([C@@H]2N[C@@H](C(=O)NCc3ccc(C(=O)NO)cc3)Cc3c2[nH]c2ccccc32)cc1OC |  | 0.078 | 0.9 |  | 
7 | COc1ccc([C@H]2N[C@@H](C(=O)NCc3ccc(C(=O)NO)cc3)Cc3c2[nH]c2ccccc32)cc1 |  |  |  | 82.3 | 35.8
8 | O=C(NO)c1ccc(CNC(=O)[C@H]2Cc3c([nH]c4ccccc34)[C@H](c3ccccc3)N2)cc1 | 0.0021 | 0.0423 | 0.58 |  | 
9 | COc1ccc(CN2Cc3[nH]c4ccccc4c3C[C@@H]2C(=O)NCc2ccc(C(=O)NO)cc2)cc1 |  |  |  | 83.4 | 32
10 | O=C(NO)c1ccc(CNC(=O)[C@H]2Cc3c([nH]c4ccccc34)[C@H](C3CCCC3)N2)cc1 | 0.00253 | 0.0405 | 0.68 |  | 
11 | COc1ccc(C[C@H]2N[C@H](C(=O)NCc3ccc(C(=O)NO)cc3)Cc3c2[nH]c2ccccc32)cc1 |  |  |  | 81.5 | 38.1
12 | COc1ccc([C@@H]2N[C@@H](C(=O)NCc3ccc(C(=O)NO)cc3)Cc3c2[nH]c2ccccc32)cc1 | 0.00234 | 0.0515 |  | 96.4 | 90.6
13 | COc1ccc([C@H]2N[C@H](C(=O)NCc3ccc(C(=O)NO)cc3)Cc3c2[nH]c2ccccc32)cc1 | 0.00375 | 0.494 |  | 98.7 | 71.4
14 | COc1ccc(CN2[C@H](C(=O)NCc3ccc(C(=O)NO)cc3)Cc3c([nH]c4ccccc34)[C@H]2C2CC2)cc1 |  | 1.68 |  |  | 43.2
